The text below walks through data of patent US20240382400A1 (The Procter & Gamble Company, priority 2023, published 2024).

For data set [1] the following is noted: acidic pKa; cited from earlier work.
For data set [2] the following is noted: pH 7.0 and 20° C.; cited from earlier work.
For data set [3] the following is noted: cited from earlier work.
For data set [4], the system named is PGE2. Nature of the data set: PGE2 anti-inflammation assay in-vitro. It is filed as cell-based. The following applies: compared to niacinamide.

Read-outs that look alike come from different tables or passages of the source.

Consider `O=C(O)C=Cc1ccccc1` [cinnamic acid], for which the pKa in data set [1] is reported as 4.32. For the compound `O=C([O-])C=Cc1ccccc1.[Na+]` [Sodium Cinnamate], the pKa in data set [1] is reported as 4.32. For the compound `O=C(O)/C=C/c1ccc(O)cc1` [p-coumaric acid], in data set [2], the solubility in water entry was “approximately 345 mg/mL”. Besides, the conjugate base form result is “approximately 13.4%” in data set [3] (pH 3) and “approximately 99.6%” in data set [3] (pH 7). For Methyl niacinamide, in data set [4], the “efficacy in PGE2 anti-inflammation assay” value is given as “equivalent and/or improved efficacy to niacinamide”.
